The values that follow come from patent publication US8309126B2, “Dispersible bosentan tablet” (Actelion Pharmaceuticals, Ltd., priority 2005, dated 2012).

Structures are written as SMILES.

The data set can be described thus: Solubility of compound I in water. Type of data set: physicochemical. An excerpt:
The bitter taste of compound I can also be overcome by using flavouring agents (1.5) and/or sweetening agents (1.6).

Consider `COc1ccccc1Oc1c(NS(=O)(=O)c2ccc(C(C)(C)C)cc2)nc(-c2ncccn2)nc1OCCO` [compound I, 4-tert-butyl-N-[6-(2-hydroxy-ethoxy)-5-(2-methoxy-phenoxy)-2-(pyrimidin-2-yl)-pyrimidin-4-yl]-benzenesulfonamide], for which the “Effect of an acidifying agent on solubility of compound I” value (presence of an acidifying agent (1.4), tablet dispersed with water) is reported as “decreases the solubility”. Also, the Solubility in water result (water) is “practically insoluble”.
